Measurements reported in patent US20170101684A1, “METHOD FOR DIAGNOSING AND TREATING MULTIPLE MYELOMA” (Erasmus University Medical Center Rotterdam, priority 2014, published 2017).

Key:
[1] = tested on: MM subjects without the amp1q chromosomal aberration; assay: Response of MM patients without amp1q to proteasome inhibitor; assay type: in vivo, human
Excerpt: Methods for determining whether a subject with MM has an amp1q chromosomal aberration are known in the art, and any such methods may be used in aspects of this disclosure, although preferred embodiments will be disclosed herein below.

[2] = tested on: MM patients with amp1q chromosomal aberration; assay: Overall survival (Kaplan Meier) of MM patients with amp1q by classical FISH, PAD versus VAD; assay type: in vivo, human; conditions: MM patients with an amp1q chromosomal aberration
Excerpt: FIG. 1: Kaplan Meier curve showing 60 MM patients (see Table 2) identified as having an additional copy of chromosome 1q (amp1q) using classical FISH analysis. […] Upper line: amp1q cases treated with PAD; lower line: amp1q cases treated with VAD. Hazard Ratio=3.59, p=0.0037.
FIG. 1 provides a Kaplan-Meier curve wherein the top line represents amp1q cases treated with Bortezomib (a proteasome inhibitor), Adriamycin and Dexamethasone (PAD), and the bottom line represents amp1q cases treated with a conventional therapy (Vincristine Adriamycin Dexamethasone or VAD). A Hazard Ratio of 3.59 (p=0.0037) was found. It was concluded that MM patients with amp1q may be preferentially treated with a proteasome inhibitor such as Bortezomib since that provides these patients with a better life expectancy.
FISH analysis was performed in 304 patients. In nonpurified plasma cell samples (n=125), at least 200 interphase nuclei per sample were analyzed by the use of epi-fluorescence microscopy and image analysis software. Within several cases, a preceding analysis of selected myeloma cells was determined by immunoglobulin light chain counterstaining or morphology. In CD138-purified PC samples (n=179), 100 nuclei were evaluated by the use of an epifluorescence microscope (Leica Microsystems). […]

Compound: CC(C)C[C@H](NC(=O)[C@H](Cc1ccccc1)NC(=O)c1cnccn1)B(O)O [Bortezomib]
- Response to treatment [1]: do not experience this advantageous response
- Response to treatment [2]: respond well
